ChEMBL document CHEMBL1201862, “PubChem BioAssay data set” (2004)
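96-well plates; 48 h exposure; 5 concentrations. Endpoints by linear interpolation between flanking doses. Not reached: highest tested concentration assigned. The concentration for 50% growth inhibition is given as GI50.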 Calls of active or inactive are those of the source. Cut-off read from the data, not from the text of the source: active = GI50 up to about 1.1 µM and inactive = higher.

What was measured:
Test in all cases: inhibition of tumour cell growth, NCI panel, 48 h
[1] = tested on: 786-0
[2] = tested on: A498
[3] = tested on: A549
[4] = tested on: ACHN
[5] = tested on: BT-549
[6] = tested on: CAKI-1
[7] = tested on: CCRF-CEM
[8] = tested on: COLO 205
[9] = tested on: EKVX
[10] = tested on: HCC 2998
[11] = tested on: HCT-116
[12] = tested on: HCT-15
[13] = tested on: HOP-62
[14] = tested on: KM12
[15] = tested on: LOX IMVI
[16] = tested on: M14
[17] = tested on: MCF7
[18] = tested on: MDA-MB-231
[19] = tested on: MDA-MB-435
[20] = tested on: MDA-N
[21] = tested on: Malme-3M
[22] = tested on: NCI-H226
[23] = tested on: NCI-H23
[24] = tested on: NCI-H460
[25] = tested on: NCI-H522
[26] = tested on: NCI/ADR-RES
[27] = tested on: OVCAR-3
[28] = tested on: OVCAR-4
[29] = tested on: OVCAR-5
[30] = tested on: OVCAR-8
[31] = tested on: PC-3
[32] = tested on: RPMI-8226
[33] = tested on: RXF 393
[34] = tested on: SF-268
[35] = tested on: SF-295
[36] = tested on: SF-539
[37] = tested on: SK-MEL-28
[38] = tested on: SK-MEL-2
[39] = tested on: SK-MEL-5
[40] = tested on: SK-OV-3
[41] = tested on: SN12C
[42] = tested on: SNB-19
[43] = tested on: SNB-75
[44] = tested on: SW-620
[45] = tested on: T47D
[46] = tested on: TK-10
[47] = tested on: U-251
[48] = tested on: UACC-257
[49] = tested on: UO-31
[50] = tested on: DU-145
[51] = tested on: HL-60
[52] = tested on: HOP-92
[53] = tested on: HT-29
[54] = tested on: Hs-578T
[55] = tested on: IGROV-1
[56] = tested on: K562
[57] = tested on: MOLT-4
[58] = tested on: SR
[59] = tested on: UACC-62

Cc1cc2[nH]c3c(C#N)c(-c4ccccc4)c(/C=N/c4cccc(C(F)(F)F)c4)c(=O)n3c2cc1C
GI50 [1]: 94 µM (inactive) | GI50 [2]: > 100 µM (inactive) | GI50 [3]: > 100 µM (inactive) | GI50 [4]: 83.9 µM (inactive) | GI50 [5]: 91.6 µM (inactive) | GI50 [6]: 89.9 µM (inactive) | GI50 [7]: 72.8 µM (inactive) | GI50 [8]: > 100 µM (inactive) | GI50 [9]: > 100 µM (inactive) | GI50 [10]: > 100 µM (inactive) | GI50 [11]: 40.8 µM (inactive) | GI50 [12]: 74.1 µM | GI50 [13]: 22.6 µM (inactive) | GI50 [14]: 38.4 µM (inactive) | GI50 [15]: 97.9 µM (inactive) | GI50 [16]: > 100 µM (inactive) | GI50 [17]: 79.8 µM (inactive) | GI50 [18]: > 100 µM (inactive) | GI50 [19]: > 100 µM (inactive) | GI50 [20]: 79.3 µM (inactive) | GI50 [21]: > 100 µM (inactive) | GI50 [22]: > 100 µM (inactive) | GI50 [23]: > 100 µM (inactive) | GI50 [24]: > 100 µM (inactive) | GI50 [25]: 39.4 µM (inactive) | GI50 [26]: > 100 µM (inactive) | GI50 [27]: 16.3 µM (inactive) | GI50 [28]: 99.5 µM (inactive) | GI50 [29]: > 100 µM (inactive) | GI50 [30]: > 100 µM (inactive) | GI50 [31]: > 100 µM (inactive) | GI50 [32]: 70 µM (inactive) | GI50 [33]: 37 µM (inactive) | GI50 [34]: 64.7 µM (inactive) | GI50 [35]: 64.3 µM (inactive) | GI50 [36]: 63.4 µM (inactive) | GI50 [37]: > 100 µM (inactive) | GI50 [38]: > 100 µM (inactive) | GI50 [39]: > 100 µM (inactive) | GI50 [40]: 99.5 µM (inactive) | GI50 [41]: 89.9 µM (inactive) | GI50 [42]: > 100 µM (inactive) | GI50 [43]: > 100 µM (inactive) | GI50 [44]: 59.7 µM (inactive) | GI50 [45]: 45 µM (inactive) | GI50 [46]: > 100 µM (inactive) | GI50 [47]: > 100 µM (inactive) | GI50 [48]: > 100 µM (inactive) | GI50 [49]: > 100 µM (inactive)

CC1CC(C)C2=NOS3=C2C1=NO3 (centres undefined)
GI50 [1]: > 100 µM (inactive) | GI50 [2]: 12.9 µM (inactive) | GI50 [3]: > 100 µM (inactive) | GI50 [4]: > 100 µM (inactive) | GI50 [6]: > 100 µM (inactive) | GI50 [7]: > 100 µM (inactive) | GI50 [8]: 72.6 µM (inactive) | GI50 [50]: > 100 µM (inactive) | GI50 [9]: 40 µM (inactive) | GI50 [10]: > 100 µM (inactive) | GI50 [11]: > 100 µM (inactive) | GI50 [12]: > 100 µM | GI50 [51]: > 100 µM (inactive) | GI50 [13]: > 100 µM (inactive) | GI50 [52]: > 100 µM (inactive) | GI50 [53]: > 100 µM (inactive) | GI50 [54]: > 100 µM (inactive) | GI50 [55]: 58.7 µM (inactive) | GI50 [56]: 53.8 µM (inactive) | GI50 [14]: > 100 µM (inactive) | GI50 [15]: > 100 µM (inactive) | GI50 [16]: > 100 µM (inactive) | GI50 [17]: 82.8 µM (inactive) | GI50 [18]: > 100 µM (inactive) | GI50 [19]: > 100 µM (inactive) | GI50 [20]: > 100 µM (inactive) | GI50 [57]: 89.9 µM (inactive) | GI50 [21]: 89.7 µM (inactive) | GI50 [22]: > 100 µM (inactive) | GI50 [23]: > 100 µM (inactive) | GI50 [24]: > 100 µM (inactive) | GI50 [25]: > 100 µM (inactive) | GI50 [26]: > 100 µM (inactive) | GI50 [27]: > 100 µM (inactive) | GI50 [28]: > 100 µM (inactive) | GI50 [29]: > 100 µM (inactive) | GI50 [30]: > 100 µM (inactive) | GI50 [31]: > 100 µM (inactive) | GI50 [32]: > 100 µM (inactive) | GI50 [33]: > 100 µM (inactive) | GI50 [34]: > 100 µM (inactive) | GI50 [35]: > 100 µM (inactive) | GI50 [36]: > 100 µM (inactive) | GI50 [37]: > 100 µM (inactive) | GI50 [38]: > 100 µM (inactive) | GI50 [39]: 30.8 µM (inactive) | GI50 [40]: > 100 µM (inactive) | GI50 [41]: > 100 µM (inactive) | GI50 [42]: > 100 µM (inactive) | GI50 [43]: 59.8 µM (inactive) | GI50 [58]: > 100 µM (inactive) | GI50 [44]: > 100 µM (inactive) | GI50 [45]: > 100 µM (inactive) | GI50 [46]: > 100 µM (inactive) | GI50 [47]: > 100 µM (inactive) | GI50 [48]: > 100 µM (inactive) | GI50 [59]: 79.8 µM (inactive) | GI50 [49]: > 100 µM (inactive)

Cc1cc(S(=O)(=O)Nc2nc3cscc3c(=O)n2N)c(S)cc1Cl
GI50 [1]: 54.6 µM (inactive) | GI50 [3]: 28.2 µM (inactive) | GI50 [4]: 56.2 µM (inactive) | GI50 [5]: 55.1 µM (inactive) | GI50 [6]: > 100 µM (inactive) | GI50 [7]: 62.8 µM (inactive) | GI50 [8]: > 100 µM (inactive) | GI50 [50]: 40.3 µM (inactive) | GI50 [9]: 70.1 µM (inactive) | GI50 [10]: 47.5 µM (inactive) | GI50 [11]: 36.7 µM (inactive) | GI50 [12]: 35.2 µM | GI50 [51]: > 100 µM (inactive) | GI50 [13]: 49.3 µM (inactive) | GI50 [53]: 39.6 µM (inactive) | GI50 [55]: 50.7 µM (inactive) | GI50 [56]: 60.5 µM (inactive) | GI50 [14]: 39.5 µM (inactive) | GI50 [15]: 36.5 µM (inactive) | GI50 [16]: 31.9 µM (inactive) | GI50 [17]: 61.5 µM (inactive) | GI50 [18]: 73.8 µM (inactive) | GI50 [19]: 56 µM (inactive) | GI50 [20]: 51.4 µM (inactive) | GI50 [57]: 57.3 µM (inactive) | GI50 [21]: 39.4 µM (inactive) | GI50 [22]: 8.15 µM (inactive) | GI50 [23]: 55.2 µM (inactive) | GI50 [24]: 28 µM (inactive) | GI50 [25]: 32.8 µM (inactive) | GI50 [26]: 26.3 µM (inactive) | GI50 [27]: 45 µM (inactive) | GI50 [28]: 39.3 µM (inactive) | GI50 [29]: 26.5 µM (inactive) | GI50 [30]: 46.2 µM (inactive) | GI50 [31]: 48.8 µM (inactive) | GI50 [32]: 96.6 µM (inactive) | GI50 [34]: 17.7 µM (inactive) | GI50 [35]: 37.9 µM (inactive) | GI50 [36]: 34.7 µM (inactive) | GI50 [37]: 73.3 µM (inactive) | GI50 [38]: 33.4 µM (inactive) | GI50 [39]: 41 µM (inactive) | GI50 [40]: > 100 µM (inactive) | GI50 [41]: 56.4 µM (inactive) | GI50 [42]: 35.9 µM (inactive) | GI50 [43]: 15 µM (inactive) | GI50 [44]: 54.7 µM (inactive) | GI50 [46]: > 100 µM (inactive) | GI50 [47]: 37.3 µM (inactive) | GI50 [48]: > 100 µM (inactive) | GI50 [59]: 31.9 µM (inactive)
